The source of these data is patent publication US11109588B2, “Stable liquid formulations and methods of using the same” (priority 2019, dated 2021).

The nature of this data set: Storage stability of liquid compositions in a sealed container, 8 weeks at 40° C., loss by HPLC. Type of data set: physicochemical. To be noted: inert ingredients of Composition #7 of Table 3, aged 8 weeks at 40° C.

Take `COC(=O)c1sccc1S(=O)(=O)NC(=O)Nc1nc(C)nc(OC)n1` [Thifensulfuron-methyl, thifensulfuron-methyl]: the “relative loss of thifensulfuron-methyl” value was “less than 5 % w/w”.
